Results reported in the supplement of paper PMC10307832.

Columns and labels:
Assay in all cases: relative viability (nuclei count vs DMSO), 5 days (fraction); higher = more cells survive
Linsitinib + Trametinib = compound: C[C@]1(O)C[C@@H](c2nc(-c3ccc4ccc(-c5ccccc5)nc4c3)c3c(N)nccn32)C1 [Linsitinib] + CC(=O)Nc1cccc(-n2c(=O)n(C3CC3)c(=O)c3c(Nc4ccc(I)cc4F)n(C)c(=O)c(C)c32)c1 [Trametinib] (partner 0.02 µM)
Outline: (§1)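 After 5 days of treatment, lung cancer cells in 1536-well plates were fixed and stained in a single step (final 0.05% Triton X-100, 1% formaldehyde, 1 ug/ml Hoechst) and their nuclei counted on 4× images. Treatment had been applied by pin tool the day after seeding as one drug alone or as a fixed anchor-drug dose with five library-drug doses (not always all listed) in √10 steps. Relative viability is the nuclei count of treated wells divided by that of vehicle wells, and values are medians of duplicate plates.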

Linsitinib + AZD7762 = compound: C[C@]1(O)C[C@@H](c2nc(-c3ccc4ccc(-c5ccccc5)nc4c3)c3c(N)nccn32)C1 [Linsitinib] + NC(=O)Nc1cc(-c2cccc(F)c2)sc1C(=O)N[C@H]1CCCNC1 [AZD7762] (partner 0.2 µM)
Outline: as §1

Linsitinib + Vorinostat = compound: C[C@]1(O)C[C@@H](c2nc(-c3ccc4ccc(-c5ccccc5)nc4c3)c3c(N)nccn32)C1 [Linsitinib] + O=C(CCCCCCC(=O)Nc1ccccc1)NO [Vorinostat] (partner 1 µM)
Outline: as §1

Ispinesib + Tozasertib = compound: Cc1ccc(C(=O)N(CCCN)[C@@H](c2nc3cc(Cl)ccc3c(=O)n2Cc2ccccc2)C(C)C)cc1 [Ispinesib] + Cc1cc(Nc2cc(N3CCN(C)CC3)nc(Sc3ccc(NC(=O)C4CC4)cc3)n2)n[nH]1 [Tozasertib] (partner 0.1 µM)
Outline: as §1

Cell Line | relative viability (Linsitinib + Trametinib; first compound 0.01 µM) | relative viability (Linsitinib + Trametinib; first compound 0.03162 µM) | relative viability (Linsitinib + Trametinib; first compound 0.1 µM) | relative viability (Linsitinib + Trametinib; first compound 0.3162 µM) | relative viability (Linsitinib + Trametinib; first compound 1 µM) | relative viability (Linsitinib + AZD7762; first compound 0.01 µM) | relative viability (Linsitinib + AZD7762; first compound 0.03162 µM) | relative viability (Linsitinib + AZD7762; first compound 0.1 µM) | relative viability (Linsitinib + AZD7762; first compound 0.3162 µM) | relative viability (Linsitinib + AZD7762; first compound 1 µM) | relative viability (Linsitinib + Vorinostat; first compound 0.01 µM) | relative viability (Linsitinib + Vorinostat; first compound 0.03162 µM) | relative viability (Linsitinib + Vorinostat; first compound 0.1 µM) | relative viability (Linsitinib + Vorinostat; first compound 0.3162 µM) | relative viability (Linsitinib + Vorinostat; first compound 1 µM) | relative viability (Ispinesib + Tozasertib; first compound 0.001 µM) | relative viability (Ispinesib + Tozasertib; first compound 0.003162 µM) | relative viability (Ispinesib + Tozasertib; first compound 0.01 µM) | relative viability (Ispinesib + Tozasertib; first compound 0.03162 µM) | relative viability (Ispinesib + Tozasertib; first compound 0.1 µM)
NCI-H1666 | 0.8 | 0.907 | 0.904 | 0.644 | 0.594 | 0.704 | 0.834 | 0.828 | 0.645 | 0.597 | 1 | 1.06 | 1.02 | 0.617 | 0.922 | 0.56 | 0.601 | 0.613 | 0.542 | 0.454
NCI-H1734 | 0.642 | 0.685 | 0.61 | 0.468 | 0.605 | 0.61 | 0.534 | 0.579 | 0.794 | 0.363 | 0.865 | 0.727 | 0.877 | 0.554 | 0.541 | 0.258 | 0.121 | 0.25 | 0.254 | 0.218
NCI-H1755 | 0.731 | 0.783 | 0.76 | 0.715 | 0.721 | 0.454 | 0.421 | 0.531 | 0.657 | 0.363 | 0.741 | 0.773 | 0.821 | 0.58 | 0.727 | 0.529 | 0.627 | 0.595 | 0.638 | 0.46
NCI-H1793 | 0.414 | 0.479 | 0.457 | 0.36 | 0.395 | 0.577 | 0.559 | 0.39 | 0.352 | 0.169 | 0.816 | 0.749 | 0.705 | 0.536 | 0.433 | 0.322 | 0.345 | 0.724 | 0.288 | 0.368
NCI-H1915 | 0.292 | 0.332 | 0.292 | 0.308 | 0.268 | 0.661 | 0.641 | 0.785 | 0.748 | 0.538 | 0.547 | 0.51 | 0.528 | 0.46 | 0.394 | 0.444 | 0.528 | 0.498 | 0.462 | 0.315
NCI-H1944 | 0.395 | 0.465 | 0.381 | 0.356 | 0.346 | 0.469 | 0.455 | 0.547 | 0.478 | 0.266 | 0.508 | 0.674 | 0.537 | 0.45 | 0.317 | 0.263 | 0.249 | 0.275 | 0.225 | 0.234
NCI-H1975 | 0.396 | 0.336 | 0.331 | 0.308 | 0.272 | 0.697 | 0.673 | 0.685 | 0.685 | 0.562 | 0.752 | 0.614 | 0.748 | 0.575 | 0.632 | 0.964 | 0.956 | 0.795 | 0.557 | 0.215
NCI-H1993 | 0.46 | 0.494 | 0.398 | 0.476 | 0.504 | 0.734 | 0.773 | 0.623 | 0.509 | 0.513 | 0.936 | 0.737 | 0.781 | 0.286 | 0.644 | 0.54 | 0.509 | 0.574 | 0.519 | 0.588
